Here are results for one compound from patent publication US20130023555A1, “KINASE INHIBITOR WITH IMPROVED SOLUBILITY PROFILE” (Abbott Laboratories, priority 2011, published 2013).

Values after ≈ are worked out from the molar mass of the structure shown.

One series has as its target T1, FLT1 (Homo sapiens, UniProt P17948).
T1 construct: His6
T1 sequence (P17948 786-1338 limits assumed): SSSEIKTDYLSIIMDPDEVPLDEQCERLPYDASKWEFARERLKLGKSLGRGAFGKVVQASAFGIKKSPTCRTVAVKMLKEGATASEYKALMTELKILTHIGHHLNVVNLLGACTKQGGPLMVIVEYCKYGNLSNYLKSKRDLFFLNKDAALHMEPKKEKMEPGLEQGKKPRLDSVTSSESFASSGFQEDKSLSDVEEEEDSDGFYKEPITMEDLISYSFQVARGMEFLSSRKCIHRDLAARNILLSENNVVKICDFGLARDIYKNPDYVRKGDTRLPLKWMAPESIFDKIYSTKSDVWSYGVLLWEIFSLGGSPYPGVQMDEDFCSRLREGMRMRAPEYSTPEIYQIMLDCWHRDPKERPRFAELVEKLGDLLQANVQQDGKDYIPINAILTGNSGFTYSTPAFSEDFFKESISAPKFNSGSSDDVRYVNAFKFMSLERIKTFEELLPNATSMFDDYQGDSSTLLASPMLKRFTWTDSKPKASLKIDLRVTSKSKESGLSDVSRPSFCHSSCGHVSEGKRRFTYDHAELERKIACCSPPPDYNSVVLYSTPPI
Kind of series: HTRF in vitro kinase assay, FLT1. It is filed as biochemical. To be noted: 1 mM ATP. The method, then: To determine the activity of the various kinases, a homogenous time-resolved fluorescence (HTRF) in vitro kinase assay was used. (Mathis, G., HTRF(R) Technology. J Biomol Screen, 1999. 4(6): p. 309-314; Alfred J. Kolb, Paul V. Kaplita, David J. Hayes, Young-Whan Park, Christine Pernell, John S. Major and Gerard Mathis, Drug Discovery Today, 1998, 3, 333-342.)
For example for KDR, cKIT, FLT1, CSF1R and FTL3, purified enzyme was mixed with 0.5 μM N-biotinylated substrate (Biotin-Ahx-[…]-amide (SEQ. ID. 1)), various concentrations of inhibitor in reaction buffer (50 mM HEPES, pH 7.1, 10 mM MgCl2, 2 mM MnCl2, 0.1% BSA and 1 mM DTT, 40 μL final volume), ATP (1 mM final conc.) in a black 384-well plate. […] The quenched reaction was allowed to stand at room temperature for 3 hours and was then read in a time-resolved fluorescence detector (InVision, Perkin-Elmer) at 620 nm and 665 nm sequentially with excitation. The ratio between the signal of 620 nm and 665 nm was used in the calculation of the IC50.

The target in the next series is T2, Aurora B (Homo sapiens, UniProt Q96GD4).
T2 construct: Active Aurora B enzyme (recombinant residues 1-344)
Kind of series: Aurora B enzyme assay (time-resolved fluorescence). To be noted: 1 mM ATP, with INCENP. In kind it is biochemical. The method, then:
After 1 hour, the reaction was stopped with EDTA and anti-phospho-histone H3 Europium Cryptate (Cis-Bio) and SA-APC (Phycolink, Prozyme) were added to detect the phosphopeptide. The amount of phosphorylation was determined by the time-resolved fluorescence ratio of signals at 665 nm and 615 nm. The IC50's were calculated by an exponential fit of the inhibition values with the inhibitor concentrations using Assay Explorer software.

For the next series, the target named is T3, CYP3A4 (Homo sapiens, UniProt P08684).
T3 construct: The incubations consisted of human liver microsomal protein at 0.4 mg/ml; from tissue; host or cells: human liver microsomes
Kind of series: CYP 3A4 Assay (Luc, luminescence, human liver microsomes). It is filed as in vitro ADME. The conditions noted are these: human liver microsomes 0.4 mg/mL, substrate LUC-LIPA. The protocol: Each assay was preformed in ½ well plates. Test compounds were examined at six concentrations in DMSO that were serial diluted to: 2, 0.6, 0.2, 0.07, 0.02, and 0.007 mM (from left to right) and at 100×; 0.5 ul of these dilutions were added to two empty assay plates (resulting in final assay concentrations of 20, 6, 2, 0.7, 0.2, and 0.07 uM. The control and vehicle were added to the plate at 100× with the same dilution scheme.
The incubations consisted of human liver microsomal protein at 0.4 mg/ml in 100 mM KPO4 buffer, 125 uM NADPH and Regeneration mix in phosphate buffer at pH 7.4.
CYP3A4 requires a pre-incubation using the following recipe:
• CYP3A4—5 μM LUC-LIPA in 100 mM phosphate buffer pH 7.4 • Assay Procedure for CYP3A4: • 1. 40 uL of the Pre-incubation Mixture was added to all wells of the assay plates. • 2. Plates were pre-incubated for 10 minutes at 37° C., with shaking or rocking. (No pre-read is necessary for the luminescence assays CYP2C9 and CYP3A4). • 3. 10 μL of Substrate Solution was added to all wells of the assay plates. • 4. Plates were incubated for an additional 25 minutes at 37° C., with shaking or rocking. • 5. added 50 μl of stop/developer from respective kits, and incubated for 20 minutes to 2 hours with shaking at room temperature prior to reading. […]

Series [1] is described as follows: Determination of Thermodynamic Solubility. The conditions noted are these: PEG 300, 25 °C, organic solvent or mixture, thermodynamic from solid, PEG 300, Example 2 at 25° C., Example 1 at ambient temperature, read-out: Solubility (PEG300). It is filed as physicochemical. The protocol:
Aqueous pH 7.4 and PEG 300 samples were tested at 25° C. Excess amount of the bulk drug was weighed out and mixed with an aliquot of target media in a clear glass vial (n=3/solvent). The vial was capped, wrapped with aluminum foil, and tumbled in a 25° C. water bath. When equilibration was completed, the samples were removed from the water bath and the final pH was measured, if applicable. The samples were centrifuged at 25° C. at 3000 rpm for 20 minutes. The supernatant was filtered through 4 mm 0.45 μm PTFE syringe filters. The filtrate was assayed after appropriate dilution (no dilution required for aqueous samples). The concentration of the sample was calculated against a calibration curve for the compound.
Solubility in pH 7.4 buffer was carried out as described above, except samples were not centrifuged before filtration. All other experimental steps were the same. PEG 300 and PEG 400 solubility were done at ambient temperature. Excess amount of the bulk drug was weighed out and mixed with an aliquot of target media in a clear glass vial with a small stir bar (n=3). The vials were placed on the stirrer at ˜500 rpm and allowed to equilibrate over the weekend. Samples were filtered through 13 mm 0.45 μm GHP syringe filters. The filtrate was assayed after appropriate dilutions, and concentrations determined against a calibration curve for the compound.

T3 sequence (P08684 whole entry): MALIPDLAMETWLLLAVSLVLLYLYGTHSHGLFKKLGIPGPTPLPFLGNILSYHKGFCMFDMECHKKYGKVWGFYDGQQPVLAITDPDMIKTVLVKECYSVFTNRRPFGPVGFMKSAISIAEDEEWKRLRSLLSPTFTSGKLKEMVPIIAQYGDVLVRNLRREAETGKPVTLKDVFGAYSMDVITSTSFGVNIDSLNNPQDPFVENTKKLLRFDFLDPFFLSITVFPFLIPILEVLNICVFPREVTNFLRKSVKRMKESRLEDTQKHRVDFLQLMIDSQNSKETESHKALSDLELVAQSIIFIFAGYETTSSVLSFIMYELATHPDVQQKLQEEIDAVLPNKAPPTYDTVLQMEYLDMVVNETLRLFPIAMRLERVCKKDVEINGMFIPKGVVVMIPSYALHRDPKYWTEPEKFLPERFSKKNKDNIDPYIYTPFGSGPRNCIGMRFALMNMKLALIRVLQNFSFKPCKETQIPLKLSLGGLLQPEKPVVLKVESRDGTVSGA
T2 sequence (Q96GD4 whole entry, the tested form may be a part): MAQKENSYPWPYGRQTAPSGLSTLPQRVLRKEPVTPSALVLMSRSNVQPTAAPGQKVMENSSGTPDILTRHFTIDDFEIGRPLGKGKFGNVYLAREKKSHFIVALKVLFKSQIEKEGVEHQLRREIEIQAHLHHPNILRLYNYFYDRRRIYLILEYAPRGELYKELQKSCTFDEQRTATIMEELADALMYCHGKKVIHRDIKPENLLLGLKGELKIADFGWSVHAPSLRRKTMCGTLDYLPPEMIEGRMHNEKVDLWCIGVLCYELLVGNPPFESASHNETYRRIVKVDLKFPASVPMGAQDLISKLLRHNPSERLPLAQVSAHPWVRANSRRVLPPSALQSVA
T2 sequence (Q9NQS7 803-918 partner limits assumed): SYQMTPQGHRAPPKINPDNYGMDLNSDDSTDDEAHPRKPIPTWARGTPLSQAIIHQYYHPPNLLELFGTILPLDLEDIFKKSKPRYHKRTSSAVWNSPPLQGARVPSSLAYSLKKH

On to `CNC(=O)c1cnc(N)c2c(-c3ccc(NC(=O)Nc4cccc(C)c4)cc3)csc12` [Example 2, 4-amino-N-methyl-3-(4-{[(3-methylphenyl)carbamoyl]amino}phenyl)thieno[3,2-c]pyridine-7-carboxamide], for which the IC50 against FLT1 was 2 nM; at Aurora B it was 1.3 nM; on CYP3A4, above 20 µM. Besides, the solubility in series [1] is 8400 µg/mL (≈ 19.5 mM).
